In US9464291B2, “Methods and compositions for the treatment of cancer” (University of South Alabama, priority 2012, dated 2016):
“Also recorded” adds a separate entry of the source.

Tests used:
c-fos = c-fos mRNA (semi-quantitative PCR) and protein in A2780-CP70 cells; format: cell-based, human
ERCC1, XPD, XRCC1 = ERCC1, XPD, XRCC1 mRNA / protein levels in A2780-CP70 cells; format: cell-based, human; settings: A2780-CP70
[1] = system: c-jun (Ser 63, Ser 73, Thr 91, Thr 93); assay: c-jun protein phosphorylation, Western blot, A2780-CP70 cells; format: cell-based, human; settings: 72 hr observation
Procedure: Protein levels for c-jun, c-fos, phosphorylated c-jun (Ser 63), phosphorylated c-jun (Ser 73), and phosphorylated c-jun (Thr 91, Thr 93) were tested in cytosolic, nuclear, and whole cell fractions at 0 hr, 6 hr, 24 hr, 48 hr, and 72 hr. Internal controls for cytosolic and nuclear fractions included α-tubulin and histone deacetylase 3.
Phosphorylation of c-jun in A2780-CP70 cells transfected with anti-GLI1 shRNA construct was assessed using Western blot analysis. Protein levels for c-jun, phosphorylated c-jun (Ser 63), phosphorylated c-jun (Ser 73), and phosphorylated c-jun (Thr 91, Thr 93) were examined at 0 hr, 6 hr, 24 hr, 48 hr, and 72 hr.
A2780-CP70 cells were treated with an IC50 dose of cisplatin and an IC50 dose of anti-Gli1 shRNA.

OPN promoter = OPN promoter luciferase reporter assay in melanoma cell lines; format: cell-based, human; settings: MDA-MB-435, MCC012A, MCC012F
Procedure: Empty pGL3 vector was used as control. Hedgehog ligands were added to the well 6 h prior to harvesting the cells (approximately 33 hr of initiation of transfection) for assay. Readings were normalized to total protein content. Each parameter was studied in triplicate and the experiment repeated at least 3 times. The data are represented as percent luciferase activity, which was derived as a percent of the relative light units in treated groups compared with the untreated groups.

RAW264.7 cells = assay: Osteoclast resorption activity, OAAS plates; format: cell-based, murine; settings: DM supplemented with SHH (100 nM) or OPN (100 ng/ml)
Procedure: Osteoclast differentiation and activity assays—Tartarate-resistant acid phosphatase (TRAP) assay was conducted for RAW 264.7 following the manufacturer's protocol (Sigma, St. Louis, Mo.). This assay was indicative of the extent of differentiation. OAAS plates (Osteogenic Core Technologies, Choongnam, Republic of Korea) were utilized to measure osteoclastic activity. RAW 264.7 cells (25×103) were inoculated in 48-well plates. Cells were treated with serum-free conditioned media from breast cancer cells or 100 nM SHH or 100 ng/ml OPN on the following day. Media was changed every two days and the experiments were terminated either on day 6 (day 7 for knockdown experiments, with transfections being done on the sixth day). At the completion, cells were detached with 5% sodium hypochlorite and the wells were observed under a Nikon Eclipse TS 100 microscope at 10× magnification. […] The percentage of area resorbed was calculated using the NIS-Elements BR. 3.1 software.

MC3T3-E1 cells = assay: Osteoblast differentiation (ALP) and mineralization (Alizarin Red S), MC3T3-E1; format: cell-based, murine; settings: 100 nM ligand in DM
Procedure: The procedure for differentiation of osteoblasts was standardized. MC3T3-E1 cells were cultured in the presence of ascorbic acid and β-glycerophosphate. Mineralization was examined by Alizarin RedS staining (Ueno, A., et al. (2001). Matrix Biol 20, 347-355; Lee, Y. K., et al. (2004). J Biomed Mater Res A 69, 188-195; Duarte, W. R., et al. (2003). S100A4: a novel negative regulator of mineralization and osteoblast differentiation. J Bone Miner Res 18, 493-501). Referring to FIG. 13 and FIG. 14, differentiation was evident by intense red staining in presence of differentiation medium and in differentiation medium containing SHH compared to the control, growth medium. This was also evident in the intensity of absorbance and in the numbers of mineralized nodules formed (counted under the microscope) (FIG. 15).
Induction of osteoblastic and osteoclastic differentiation—In order to test the effect of conditioned medium from the tumor cells on osteoblast differentiation, a double-strength differentiation medium (DM) was formulated for MC3T3 E1 Sc-14 cells. […] Osteoblast differentiation was assessed by alkaline phosphatase (ALP) activity assay in the perspective of total phosphatase. The functional assessment of osteoblast mineralization was quantified by staining with Alizarin Red S and scoring the number of mineralized nodules.

Molecule | c-fos mRNA peak level (c-fos; 70 μM cyclopamine, vs 0 hr) | c-fos protein level (c-fos; A2780-CP70, cyclopamine-treated) | ERCC1, XPD, XRCC1 mRNA upregulation over baseline (ERCC1, XPD, XRCC1; IC50 cyclopamine 24 hours, then 30 μM cisplatin 1 hour (data not shown)) | time of highest ERCC1, XPD, XRCC1 mRNA levels after cisplatin exposure (ERCC1, XPD, XRCC1; cyclopamine pretreatment vs cisplatin alone) | ERCC1, XPD, XRCC1 mRNA levels after agent alone (ERCC1, XPD, XRCC1; levels associated with 50% cell killing, 6-72 hr) | c-jun phosphorylation at Ser63 [1] | c-jun phosphorylation at Thr91/93 [1] | OPN promoter activity (OPN promoter) | osteoclast activity (area resorbed) (RAW264.7 cells) | osteoblast differentiation (ALP activity) (MC3T3-E1 cells) | numbers of mineralized nodules (MC3T3-E1 cells; 14 days)
CC1=C2C[C@H]3[C@@H](CC=C4C[C@@H](O)CC[C@@]43C)[C@@H]2CC[C@]12O[C@@H]1C[C@H](C)CN[C@H]1[C@H]2C [cyclopamine] | 27 fold | increased substantially at 6 hr | approximately 2 fold | 24 h | no increase; also recorded: no detected effect | no phosphorylation occurred at Ser63; also recorded: no substantial expression was detected; also recorded: not observed | peak levels at 6 hr | – | – | – | –
SHH: recombinant Sonic hedgehog ligand (R & D Systems) | – | – | – | – | – | – | – | up-regulated the promoter activity of OPN | notably enhances (p<0.001) osteoclast activity | stimulated differentiation | significant increase (p<0.05)
